Peptide text beside a SMILES is read from it.
System: erythrocytes infected with 3D7 trophozoites
Type: cell-based, Plasmodium falciparum
Settings: sheet Ratio; for Ratio of metabolite abundance, Exp1_1hr: Exp1, 1hr; for Ratio of metabolite abundance, Exp1_3hr: Exp1, 3hr; for Ratio of metabolite abundance, Exp1_6hr: Exp1, 6hr; for Ratio of metabolite abundance, Exp2_1hr: Exp2, 1hr; for Ratio of metabolite abundance, Exp2_3hr: Exp2, 3hr; for Ratio of metabolite abundance, Exp2_6hr: Exp2, 6hr; for Ratio of metabolite abundance, Exp3_1hr: Exp3, 1hr; for Ratio of metabolite abundance, Exp3_3hr: Exp3, 3hr; for Ratio of metabolite abundance, Exp3_6hr: Exp3, 6hr

SMILES: O=P(O)(O)OC[C@H]1OC(OP(=O)(O)OP(=O)(O)O)[C@H](O)[C@@H]1O (stereo partly drawn) [5-Phosphoribosyl-1-pyrophosphate]
- Ratio of metabolite abundance, Exp1_1hr: 1.134
- Ratio of metabolite abundance, Exp1_3hr: 1.199
- Ratio of metabolite abundance, Exp1_6hr: 1.224
- Ratio of metabolite abundance, Exp2_1hr: 2.035
- Ratio of metabolite abundance, Exp2_3hr: 1.2624
- Ratio of metabolite abundance, Exp2_6hr: 1.3078
- Ratio of metabolite abundance, Exp3_1hr: 0.8985
- Ratio of metabolite abundance, Exp3_3hr: 1.899
- Ratio of metabolite abundance, Exp3_6hr: 1.985

SMILES: Cc1cc2nc3c(=O)[nH]c(=O)nc-3n(C[C@H](O)[C@H](O)[C@H](O)COP(=O)(O)OP(=O)(O)OC[C@H]3O[C@@H](n4cnc5c(N)ncnc54)[C@H](O)[C@@H]3O)c2cc1C [FAD]
- Ratio of metabolite abundance, Exp1_1hr: 0.999
- Ratio of metabolite abundance, Exp1_3hr: 0.6842
- Ratio of metabolite abundance, Exp1_6hr: 0.7003
- Ratio of metabolite abundance, Exp2_1hr: 0.9752
- Ratio of metabolite abundance, Exp2_3hr: 0.8156
- Ratio of metabolite abundance, Exp2_6hr: 0.7377
- Ratio of metabolite abundance, Exp3_1hr: 0.855
- Ratio of metabolite abundance, Exp3_3hr: 0.7422
- Ratio of metabolite abundance, Exp3_6hr: 0.5377

SMILES: O=C[C@H](O)COP(=O)(O)O [Glyceraldehyde 3-phosphate]
- Ratio of metabolite abundance, Exp1_1hr: 0.7448
- Ratio of metabolite abundance, Exp1_3hr: 0.7431
- Ratio of metabolite abundance, Exp1_6hr: 0.4349
- Ratio of metabolite abundance, Exp2_1hr: 0.5818
- Ratio of metabolite abundance, Exp2_3hr: 0.6033
- Ratio of metabolite abundance, Exp2_6hr: 0.4986
- Ratio of metabolite abundance, Exp3_1hr: 0.4745
- Ratio of metabolite abundance, Exp3_3hr: 0.6544
- Ratio of metabolite abundance, Exp3_6hr: 0.4238

SMILES: Cc1cn([C@H]2C[C@H](O)[C@@H](COP(=O)(O)OP(=O)(O)OP(=O)(O)O)O2)c(=O)[nH]c1=O [dTTP]
- Ratio of metabolite abundance, Exp1_1hr: 1.097
- Ratio of metabolite abundance, Exp1_3hr: 0.6301
- Ratio of metabolite abundance, Exp1_6hr: 0.6957
- Ratio of metabolite abundance, Exp2_1hr: 1.256
- Ratio of metabolite abundance, Exp2_3hr: 1.272
- Ratio of metabolite abundance, Exp2_6hr: 1.427
- Ratio of metabolite abundance, Exp3_1hr: 1.1105
- Ratio of metabolite abundance, Exp3_3hr: 1.053
- Ratio of metabolite abundance, Exp3_6hr: 1.149

SMILES: Nc1ccn([C@H]2C[C@H](O)[C@@H](COP(=O)(O)OP(=O)(O)O)O2)c(=O)n1 [dCDP]
- Ratio of metabolite abundance, Exp1_1hr: 1.169
- Ratio of metabolite abundance, Exp1_3hr: 1.109
- Ratio of metabolite abundance, Exp1_6hr: 1.155
- Ratio of metabolite abundance, Exp2_1hr: 1.1851
- Ratio of metabolite abundance, Exp2_3hr: 1.387
- Ratio of metabolite abundance, Exp2_6hr: 1.852
- Ratio of metabolite abundance, Exp3_1hr: 1.354
- Ratio of metabolite abundance, Exp3_3hr: 1.295
- Ratio of metabolite abundance, Exp3_6hr: 1.494

SMILES: Cc1cc2nc3c(=O)[nH]c(=O)nc-3n(C[C@H](O)[C@H](O)[C@H](O)COP(=O)(O)O)c2cc1C [FMN]
- Ratio of metabolite abundance, Exp1_1hr: 0.8812
- Ratio of metabolite abundance, Exp1_3hr: 0.6056
- Ratio of metabolite abundance, Exp1_6hr: 0.6532
- Ratio of metabolite abundance, Exp2_1hr: 1.341
- Ratio of metabolite abundance, Exp2_3hr: 1.123
- Ratio of metabolite abundance, Exp2_6hr: 0.8423
- Ratio of metabolite abundance, Exp3_1hr: 0.5112
- Ratio of metabolite abundance, Exp3_3hr: 0.5214
- Ratio of metabolite abundance, Exp3_6hr: 0.5073

SMILES: NCCCC(=O)O [4-Aminobutanoate]
- Ratio of metabolite abundance, Exp1_1hr: 3.908
- Ratio of metabolite abundance, Exp1_3hr: 0.7769
- Ratio of metabolite abundance, Exp1_6hr: 1.748
- Ratio of metabolite abundance, Exp2_1hr: 3.257
- Ratio of metabolite abundance, Exp2_3hr: 2.342
- Ratio of metabolite abundance, Exp2_6hr: 1.761
- Ratio of metabolite abundance, Exp3_1hr: 0.9389
- Ratio of metabolite abundance, Exp3_3hr: 3.211
- Ratio of metabolite abundance, Exp3_6hr: 3.145

SMILES: CC(C)[C@H](NC(=O)[C@H](CCC(=O)O)NC(=O)[C@@H](N)CC(=O)O)C(=O)NCC(=O)O [DEVG] (H-DEVG-OH)
- Ratio of metabolite abundance, Exp1_1hr: 1.013
- Ratio of metabolite abundance, Exp1_3hr: 0.6309
- Ratio of metabolite abundance, Exp1_6hr: 0.8753
- Ratio of metabolite abundance, Exp2_1hr: 0.8701
- Ratio of metabolite abundance, Exp2_3hr: 1.059
- Ratio of metabolite abundance, Exp2_6hr: 1.02
- Ratio of metabolite abundance, Exp3_1hr: 1.139
- Ratio of metabolite abundance, Exp3_3hr: 1.261
- Ratio of metabolite abundance, Exp3_6hr: 0.9839

SMILES: O=C(O)CC[C@H](NC(=O)[C@H](CCC(=O)O)NC(=O)[C@@H]1CCCN1)C(=O)O [PEE] (H-Pro-Glu-Glu-OH)
- Ratio of metabolite abundance, Exp1_1hr: 1.088
- Ratio of metabolite abundance, Exp1_3hr: 0.6949
- Ratio of metabolite abundance, Exp1_6hr: 2.228
- Ratio of metabolite abundance, Exp2_1hr: 1.338
- Ratio of metabolite abundance, Exp2_3hr: 0.8845
- Ratio of metabolite abundance, Exp2_6hr: 1.822
- Ratio of metabolite abundance, Exp3_1hr: 1.136
- Ratio of metabolite abundance, Exp3_3hr: 1.044
- Ratio of metabolite abundance, Exp3_6hr: 2.15

SMILES: CC(C)[C@H](NC(=O)[C@H](C)NC(=O)[C@H](CC(=O)O)NC(=O)[C@@H]1CCCN1)C(=O)O [PDAV] (H-PDAV-OH)
- Ratio of metabolite abundance, Exp1_1hr: 1.025
- Ratio of metabolite abundance, Exp1_3hr: 1.041
- Ratio of metabolite abundance, Exp1_6hr: 2.029
- Ratio of metabolite abundance, Exp2_1hr: 1.45
- Ratio of metabolite abundance, Exp2_3hr: 1.498
- Ratio of metabolite abundance, Exp2_6hr: 2.552
- Ratio of metabolite abundance, Exp3_1hr: 1.376
- Ratio of metabolite abundance, Exp3_3hr: 1.38
- Ratio of metabolite abundance, Exp3_6hr: 2.341

SMILES: O=C(CO)COP(=O)(O)O [Glycerone phosphate]
- Ratio of metabolite abundance, Exp1_1hr: 2.2
- Ratio of metabolite abundance, Exp1_3hr: 2.096
- Ratio of metabolite abundance, Exp1_6hr: 0.8912
- Ratio of metabolite abundance, Exp2_1hr: 1.254
- Ratio of metabolite abundance, Exp2_3hr: 1.043
- Ratio of metabolite abundance, Exp2_6hr: 0.7007
- Ratio of metabolite abundance, Exp3_1hr: 1.243
- Ratio of metabolite abundance, Exp3_3hr: 1.057
- Ratio of metabolite abundance, Exp3_6hr: 0.7275

SMILES: O=C1CC(C(=O)O)NC(=O)N1 (stereo not drawn) [Dihydroorotate]
- Ratio of metabolite abundance, Exp1_1hr: 0.7855
- Ratio of metabolite abundance, Exp1_3hr: 0.5689
- Ratio of metabolite abundance, Exp1_6hr: 0.4919
- Ratio of metabolite abundance, Exp2_1hr: 0.9051
- Ratio of metabolite abundance, Exp2_3hr: 0.4712
- Ratio of metabolite abundance, Exp2_6hr: 0.6702
- Ratio of metabolite abundance, Exp3_1hr: 0.4693
- Ratio of metabolite abundance, Exp3_3hr: 0.4085
- Ratio of metabolite abundance, Exp3_6hr: 0.3763

SMILES: NCCOP(=O)(O)OP(=O)(O)OC[C@H]1O[C@@H](n2ccc(N)nc2=O)[C@H](O)[C@@H]1O [CDP-ethanolamine]
- Ratio of metabolite abundance, Exp1_1hr: 1.165
- Ratio of metabolite abundance, Exp1_3hr: 0.8992
- Ratio of metabolite abundance, Exp1_6hr: 0.8287
- Ratio of metabolite abundance, Exp2_1hr: 1.33
- Ratio of metabolite abundance, Exp2_3hr: 1.135
- Ratio of metabolite abundance, Exp2_6hr: 1.07
- Ratio of metabolite abundance, Exp3_1hr: 1.146
- Ratio of metabolite abundance, Exp3_3hr: 1.029
- Ratio of metabolite abundance, Exp3_6hr: 0.9178

SMILES: O=C(O)[C@H](Cc1ccccc1)NC(=O)[C@H](Cc1cnc[nH]1)NC(=O)[C@@H]1CCCN1 [PHF] (H-Pro-His-Phe-OH)
- Ratio of metabolite abundance, Exp1_1hr: 1.822
- Ratio of metabolite abundance, Exp1_3hr: 0.7039
- Ratio of metabolite abundance, Exp1_6hr: 1.872
- Ratio of metabolite abundance, Exp2_1hr: 2.081
- Ratio of metabolite abundance, Exp2_3hr: 1.353
- Ratio of metabolite abundance, Exp2_6hr: 2.7014
- Ratio of metabolite abundance, Exp3_1hr: 2.437
- Ratio of metabolite abundance, Exp3_3hr: 1.168
- Ratio of metabolite abundance, Exp3_6hr: 1.525

SMILES: NC(=O)c1ccc[n+]([C@@H]2O[C@H](COP(=O)([O-])OP(=O)(O)OC[C@H]3O[C@@H](n4cnc5c(N)ncnc54)[C@H](OP(=O)(O)O)[C@@H]3O)[C@@H](O)[C@H]2O)c1 [NADP+]
- Ratio of metabolite abundance, Exp1_1hr: 0.7131
- Ratio of metabolite abundance, Exp1_3hr: 0.6937
- Ratio of metabolite abundance, Exp1_6hr: 0.7662
- Ratio of metabolite abundance, Exp2_1hr: 1.042
- Ratio of metabolite abundance, Exp2_3hr: 0.9729
- Ratio of metabolite abundance, Exp2_6hr: 0.8073
- Ratio of metabolite abundance, Exp3_1hr: 0.7811
- Ratio of metabolite abundance, Exp3_3hr: 0.7388
- Ratio of metabolite abundance, Exp3_6hr: 0.8166

SMILES: NC(=O)N[C@@H](CC(=O)O)C(=O)O [N-Carbamoyl-L-aspartate]
- Ratio of metabolite abundance, Exp1_1hr: 0.3523
- Ratio of metabolite abundance, Exp1_3hr: 0.4866
- Ratio of metabolite abundance, Exp1_6hr: 0.4355
- Ratio of metabolite abundance, Exp2_1hr: 0.4532
- Ratio of metabolite abundance, Exp2_3hr: 0.2641
- Ratio of metabolite abundance, Exp2_6hr: 0.4319
- Ratio of metabolite abundance, Exp3_1hr: 0.3568
- Ratio of metabolite abundance, Exp3_3hr: 0.3426
- Ratio of metabolite abundance, Exp3_6hr: 0.2976

SMILES: Nc1ncnc2c1ncn2[C@H]1C[C@H](O)[C@@H](COP(=O)(O)OP(=O)(O)OP(=O)(O)O)O1 [dATP]
- Ratio of metabolite abundance, Exp1_1hr: 0.9995
- Ratio of metabolite abundance, Exp1_3hr: 0.8537
- Ratio of metabolite abundance, Exp1_6hr: 0.9613
- Ratio of metabolite abundance, Exp2_1hr: 1.009
- Ratio of metabolite abundance, Exp2_3hr: 1.102
- Ratio of metabolite abundance, Exp2_6hr: 1.077
- Ratio of metabolite abundance, Exp3_1hr: 1.104
- Ratio of metabolite abundance, Exp3_3hr: 0.9965
- Ratio of metabolite abundance, Exp3_6hr: 1.005

SMILES: Nc1ncnc2c1ncn2[C@@H]1O[C@H](COP(=O)(O)O)[C@@H](O)[C@H]1O [AMP]
- Ratio of metabolite abundance, Exp1_1hr: 0.6651
- Ratio of metabolite abundance, Exp1_3hr: 0.4095
- Ratio of metabolite abundance, Exp1_6hr: 0.7534
- Ratio of metabolite abundance, Exp2_1hr: 1.745
- Ratio of metabolite abundance, Exp2_3hr: 0.5002
- Ratio of metabolite abundance, Exp2_6hr: 0.6205
- Ratio of metabolite abundance, Exp3_1hr: 1.254
- Ratio of metabolite abundance, Exp3_3hr: 1.491
- Ratio of metabolite abundance, Exp3_6hr: 1.967

SMILES: CC(C)[C@H](NC(=O)[C@@H]1CCCN1)C(=O)N[C@@H](CCC(N)=O)C(=O)O [PVQ] (H-Pro-Val-Gln-OH)
- Ratio of metabolite abundance, Exp1_1hr: 1.621
- Ratio of metabolite abundance, Exp1_3hr: 0.8912
- Ratio of metabolite abundance, Exp1_6hr: 2.731
- Ratio of metabolite abundance, Exp2_1hr: 1.963
- Ratio of metabolite abundance, Exp2_3hr: 1.4303
- Ratio of metabolite abundance, Exp2_6hr: 3.535
- Ratio of metabolite abundance, Exp3_1hr: 1.9381
- Ratio of metabolite abundance, Exp3_3hr: 1.515
- Ratio of metabolite abundance, Exp3_6hr: 2.354
